Laboratory results published in patent publication US5567693A, “Method for inhibiting angiogenesis, proliferation of endothelial or tumor cells and tumor growth” (American Cyanamid Company, priority 1994, dated 1996).
Several values for one entry are separate records, joined by “and”; a condition that tells them apart may be missing. Identical values can stand only once. Counter-ions that a name gives are not always drawn. Like-named read-outs stand apart in the source and are kept apart here.

Legend:
angiogenesis = conditions: Brem et al, cited from earlier work; for inhibition of angiogenesis: WO92/12717
CACO2 = test: Antiproliferative activity in human tumor cell lines: CACO2 (colon); assay type: cell-based; conditions: CACO2 colon tumor, PROTOCOL 1 and PROTOCOL 2, 48 hours
Description: (§1) The antiproliferative activity of the compounds of Formula I in an Adult Bovine Aortic Endothelial (ABAE) cell line and in Human Tumor cell lines is evaluated in three similar assays that measure growth inhibition. The assays are identified as follows:
(§2) PROTOCOL 1,2,and 3 are described in greater detail hereinbelow. In general, according to PROTOCOLS 1 and 2, the target ABAE and/or Human Tumor cells are exposed to the compounds of Formula I for 48 hours. PROTOCOL 3 exposes ABAE cells to the compounds for 4 days. A detailed description of the protocols is as follows:
(§3) The antiproliferative activity of the compounds of Formula I of the present invention is evaluated in a panel comprised of human tumor cell lines and an adult bovine aortic endothelial cell line (ABAE). The human tumor cell lines are from
(§4) All cell lines are maintained in log phase in RPMI 1640 media, supplemented with 5% fetal calf serum, penicillin/streptomycin and 2 mM L-glutamine. Cultures are renewed after 20 passages with cells from a fresh stock of batch-frozen early passage cells. Cell lines are routinely checked for mycoplasma contamination (Genprobe). In a laminar flow hood, cells (1-5×10^4) are plated into 96-well microtiter plates in a volume of 0.1 ml/well with a bulk microtiter dispenser (Denley). […] At this concentration, dimethylsulfoxide has no effect on cell growth. Compounds are added using a Tomtec dispenser which simultaneously dispenses from one 96-well plate, containing the drug dilutions, to the plates containing the cells. After two days of continuous drug exposure, 50% cold trichloroacetic acid (TCA) is added to 10% final concentration to fix the cells, and after 60 minutes at 4° C., the TCA is aspirated and the plates are washed 5 times with deionized water using a microtiter plate washer. The number of cells on the plate are quantitated using a protein dye-binding assay (Monks et al., 1991). A 0.4% solution of the dye, sulforhodamine B, in glacial acetic acid is added to the plates, and the plates are washed 5 times with 1% glacial acetic acid using the automatic plate washed. The bound stain is solubilized with 0.1 ml of 10 mM Tris base. The optical densities are read from an automatic spectrophotometric plate reader (Dynatech) directly to a main frame computer (VAX 8600).
(§5) Positive controls, that include standard chemotherapeutic drugs (i.e., Adriamycin, Cisplatin, etc.), are included in every experiment.
(§6) Background optical density measurements (complete media-cells, and complete media+drug-cells) are automatically subtracted from the appropriate control and test wells. Mean values and standard errors are determined from duplicate wells. A measure is also made of the optical density at time when the drugs are added. The number of cells after treatment (P), as % of control, is calculated for every concentration of drug, as follows: [formula] wherein: T is optical density measurement for treated cells after 48 hours;
(§7) C is optical density measurement for untreated cells after 48 hours;
(§8) Co is optical density measurement for cells at the time of drug addition.
(§9) IC50 of growth inhibition is calculated from the sets of P values using the RS-1 data package (BBN Software).
(§10) The antiproliferative activity of the compounds of Formula I is evaluated in a panel comprised of human tumor cell lines and an adult bovine aortic cell line (ABAE) as listed in PROTOCOL 1. This assay is a modification of PROTOCOL 1. The modifications include:
(§11) 1) each concentration for each compound is tested in a single well;
(§12) 2) compounds are tested at 20, 4, 0.8, 0.16 microgram/ml and additionally in some experiments at 100 and 0.32 microgram/ml;
(§13) 3) samples are pipetted into a 96-well plate for each of the cell lines by a Beckman Biomek 1000 SL robot;
(§14) 4) after fixing with TCA each well is washed with 0.35 ml distilled water twice, not five times;
(§15) 5) after staining with sulforhodamine B each well is washed 3 times, not five times; […]

SW620 = test: Antiproliferative activity in human tumor cell lines: SW620 (colon); assay type: cell-based; conditions: SW-620, SW620 colon tumor, PROTOCOL 1 and PROTOCOL 2, 48 hours, read-out: IC50
Description: as §1, §2, §3, §4, §5, §6, §7, §8, §9, §10, §11, §12, §13, §14, §15

A2780/DDP = test: Antiproliferative activity in human tumor cell lines: A2780/DDP (ovarian); assay type: cell-based; conditions: PROTOCOL 1 and PROTOCOL 2, 48 hours
Description: (§16) The assays are identified as follows:
as §2, §3
(§17) Cultures are renewed after 20 passages with cells from a fresh stock of batch-frozen early passage cells. Cell lines are routinely checked for mycoplasma contamination (Genprobe). In a laminar flow hood, cells (1-5×10^4) are plated into 96-well microtiter plates in a volume of 0.1 ml/well with a bulk microtiter dispenser (Denley). […] Compounds are added using a Tomtec dispenser which simultaneously dispenses from one 96-well plate, containing the drug dilutions, to the plates containing the cells. After two days of continuous drug exposure, 50% cold trichloroacetic acid (TCA) is added to 10% final concentration to fix the cells, and after 60 minutes at 4° C., the TCA is aspirated and the plates are washed 5 times with deionized water using a microtiter plate washer. […] A 0.4% solution of the dye, sulforhodamine B, in […] is added to the plates, and the plates are washed 5 times with 1% glacial acetic acid using the automatic plate washed. The bound stain is solubilized with 0.1 ml of 10 mM Tris base. The optical densities are read from an automatic spectrophotometric plate reader (Dynatech) directly to a main frame computer (VAX 8600).
as §5, §6, §7, §8, §9, §10, §11, §12, §13, §14
(§18) 5) after staining with sulforhodamine B each well is washed 3 times, not five times;
(§19) 6) the growth inhibition (I) as % of control, is calculated using the RS-1 data package (BBN Software), for every concentration of drug, as follows: [formula] wherein: T is optical density measurement for treated cells after 48 hours;
(§20) 7) IC50 of growth inhibition is determined graphically from dose response curves, as is known in the art.

[1] = test system: Adult Bovine Aortic Endothelial (ABAE) cell line; test: Antiproliferative activity in ABAE cell line, PROTOCOL 2; assay type: cell-based; conditions: PROTOCOL 2, 48 hours
Description: as §1, §2
Antiproliferative Activity in Human Tumor and Adult Bovine Aortic Endothelial Cell Lines (ABAE)
as §10, §11, §12, §13, §14, §18, §19, §7, §20
Table 1 presents the results depicting the antiproliferative activity of the compounds of Formula I against an Adult Bovine Aortic Endothelial cell line (ABAE), as evaluated by PROTOCOL 1 and 2. The results are presented in terms of IC50 and are as follows.

Human Tumor cell lines = test: Antiproliferative activity in the panel of human tumor cell lines; assay type: cell-based; conditions: Homo sapiens; average over the 6 tumor cell lines
Description: as §1, §2, §3, §4, §5, §6, §7, §8, §9, §10, §11, §12, §13, §14, §15

HTB 161 = test: Antiproliferative activity in human tumor cell lines: HTB 161 (ovarian); assay type: cell-based; conditions: HTB 161 ovarian tumor, PROTOCOL 1 and PROTOCOL 2, 48 hours
Description: as §16, §2, §3, §17, §5, §6, §7, §8, §9, §10, §11, §12, §13, §14, §18, §19, §20

A2780S = test: Antiproliferative activity in human tumor cell lines: A2780S (ovarian); assay type: cell-based; conditions: PROTOCOL 1 and PROTOCOL 2, 48 hours
Description: as §16, §2, §3, §17, §5, §6, §7, §8, §9, §10, §11, §12, §13, §14, §18, §19, §20

MIP = test: Antiproliferative activity in human tumor cell lines: MIP (colon); assay type: cell-based; conditions: PROTOCOL 1 and PROTOCOL 2, 48 hours
Description: as §1, §2, §3, §4, §5, §6, §7, §8, §9, §10, §11, §12, §13, §14, §15

tumor growth = conditions: in conjunction with cancer chemotherapy or radiation therapy; Teicher et al; cited from earlier work
[2] = test system: Adult Bovine Aortic Endothelial (ABAE) cell line; test: Antiproliferative activity in ABAE cell line, PROTOCOL 3 (4 day assay); assay type: cell-based; conditions: 4 day assay (PROTOCOL 3)
Description: as §1, §2
Antiproliferative Activity in Adult Bovine Aortic Endothelial (ABAE) Cell Line
ABAE cells are grown in DMEMmedia (Mediatech, Washington, D.C.) supplemented with 10% calf serum (Hyclone). ABAE cells are plated in 24-well dishes at 8,000 cells/well, followed by the addition of increasing concentrations of 7-(hydrogen or di(C1 -C4)alkylamino)-8-halogen-9-(substituted)-6-demethyl-6-deoxytetracycline. After four days, the cells are detached and counted. […] The growth inhibition (I) as % of control is calculated as follows: [formula] wherein: Nc is the number of cells in untreated wells;
Nt is the number of cells in treated wells;
No is the number of plated cells.
IC50 of growth inhibition is determined from the sets of I values plotted by Kaleidograph software (Abelbeck Software).
In addition FIG. 1, presents the dose response curve for the compound of Example 10 for the above ABAE cell line obtained by using PROTOCOL 3.

[3] = Homo sapiens, Caco-2, read-out: IC50

Molecule	inhibition of angiogenesis (angiogenesis)	IC50 (CACO2; [3]) [µg/mL]	IC50 (SW620) [µg/mL]	IC50 (A2780/DDP) [µg/mL]	IC50 ([1]; Bos taurus, read-out: IC50) [µg/mL]	IC50 (Human Tumor cell lines) [µg/mL]	IC50 (HTB 161) [µg/mL]	IC50 (A2780S) [µg/mL]	IC50 (MIP) [µg/mL]	further results
CN(C)[C@@H]1C(O)=C(C(N)=O)C(=O)[C@@]2(O)C(O)=C3C(=O)c4c(O)ccc(Cl)c4[C@@](C)(O)[C@H]3C[C@@H]12 [Chlortetracycline]	useful as inhibitors of angiogenesis									
CN(C)[C@@H]1C(O)=C(C(N)=O)C(=O)[C@@]2(O)C(O)=C3C(=O)c4c(O)ccc(Cl)c4[C@@H](O)[C@H]3C[C@@H]12 [Demeclocycline]	useful as inhibitors of angiogenesis									
CC(C(=O)Nc1c(Cl)cc2c(c1O)C(=O)C1=C(O)[C@]3(O)C(=O)C(C(N)=O)=C(O)[C@@H](N(C)C)C3CC1C2)N1CCCC1 (stereo partly drawn) [Example 13, 7S-(7α,10aα)]-N-[9-(Aminocarbonyl)-3-chloro-7-(dimethylamino)-5,5a,6,6a,7,10,10a,12-octahydro-1,8,10a,11-tetrahydroxy-10,12-dioxo-2-naphthacenyl]-α-methyl-1-pyrrolidineacetamide dihydrochloride]		3	1	1	3	1.3	1	1		
CC(C(=O)Nc1c(Cl)cc2c(c1O)C(=O)C1=C(O)[C@]3(O)C(=O)C(C(N)=O)=C(O)[C@@H](N(C)C)C3CC1C2)N1CCCCC1 (stereo partly drawn) [Example 14, 7S-(7α, 10aα)]-N-[9-(Aminocarbonyl)-3-chloro-7-(dimethylamino)-5,5a,6,6a,7,10,10a,12-octahydro-1,8,10a,11-tetrahydroxy-10,12-dioxo-2-naphthacenyl]-α-methyl-1-piperidineacetamide dihydrochloride]		0.7	< 0.16	< 0.16	< 0.8		< 0.16	< 0.16	< 0.16	
CC(C)NCC(=O)Nc1c(Cl)cc2c(c1O)C(=O)C1=C(O)[C@]3(O)C(=O)C(C(N)=O)=C(O)[C@@H](N(C)C)C3CC1C2 (stereo partly drawn) [Example 15, [4S-(4α,12aα)]-8-Chloro-4-(dimethylamino)-1,4,4a,5,5a,6,11,12a,-octahydro-3,10,12,12a-tetrahydroxy-1,11-dioxo-9-[[[(1-methylethyl)amino]acetyl]amino]-2-naphthacenecarboxamide dihydrochloride]					< 1					
CCC(C(=O)Nc1c(Cl)cc2c(c1O)C(=O)C1=C(O)[C@]3(O)C(=O)C(C(N)=O)=C(O)[C@@H](N(C)C)C3CC1C2)N(C)C (stereo partly shown) [Example 18, dihydrochloride]		11	3	3	16	4.8	3		4	
CCC(C(=O)Nc1c(Cl)cc2c(c1O)C(=O)C1=C(O)[C@]3(O)C(=O)C(C(N)=O)=C(O)[C@@H](N(C)C)C3CC1C2)N1CCCC1 (stereo partly shown) [Example 19, dihydrochloride]		4	3	1	4	2.3	2	1	3	
CN(C)[C@@H]1C(O)=C(C(=O)NCNCCCC[C@H](N)C(=O)O)C(=O)[C@@]2(O)C(O)=C3C(=O)c4c(O)cccc4[C@@](C)(O)[C@H]3C[C@@H]12 [Lymecycline]	useful as inhibitors of angiogenesis									
CN(C)c1ccc(O)c2c1C[C@H]1C[C@H]3[C@H](N(C)C)C(O)=C(C(N)=O)C(=O)[C@@]3(O)C(O)=C1C2=O [Minocycline]	useful as inhibitors of angiogenesis									inhibition of angiogenesis compared with combination therapy of heparin and cortisone (angiogenesis; Cancer Research 51, 672-675): inhibits angiogenesis to an extent comparable to that of the combination therapy of heparin and cortisone; number of metastases (tumor growth): the number of metastases is reduced; tumor growth (tumor growth): tumor growth is decreased; activity upon incubation with cells [2]: loosing its activity upon incubation with cells
[4S-(4α,12aα)]-8 -Chloro-4-(dimethylamino)-9-[[(2-(dimethylamino) -1-oxopropyl]amino]-1,4,4a,5,5a,6,11,12a-octahydro-3,10,12,12a-tetrahydroxy-1,11-dioxo-9-[[[(1-methylethyl)amino]acetyl]amino]-2-naphthacenecarboxamide dihydrochloride [Example 16]										IC50 (CACO2; dihydrochloride): 4.0 µg/mL and 8.0 µg/mL; IC50 [1]: 3 µg/mL
